Data published in patent US20080182842A1, “L-alanine derivatives as a5beta1 antagonists” (ASTRAZENECA AB, priority 2007, published 2008).

Target: α5β1 integrin (Homo sapiens, UniProt P05556+P08648)
Assay: In vitro binding assay (a): inhibition of binding of α5β1 integrin to fibronectin fragment Fn9-10 (Origen electrochemiluminescence)
Conditions: recombinant human α5β1 vs Fn9-10 ligand; geometric mean where tested more than once
From the text: (a) In Vitro Binding Assay
The assay determined the ability of compounds to inhibit binding of α5β1 integrin to a cognate ligand, a fragment of human fibronectin. The assay used Origen technology (IGEN International) to measure the compound activity. Briefly, α5β1 integrin was coated onto epoxy-paramagnetic beads (Dynal Biotech UK, Bromborough, Wirral, CH62 3QL, UK, Catalogue No 140.11) and biotinylated-fibronectin ligand was coupled to strepatividin labeled Tag-NHS-Ester (BioVeris Corporation, Witney, Oxfordshire, OX28 4GE, UK, Catalogue No 110034). The ruthenium-labeled tag emits an electrochemiluminescence signal upon stimulation which is detected by the Origen reader. Thus, interaction of integrin and ligand causes association of bead and tag, and the resulting electrochemiluminescence signal reflects the level of integrin interaction with fibronectin.
20 μg of recombinant human α5β1 was coated onto 4×10(7) epoxy-paramagnetic beads according to manufacturers instructions at 4° C. for 24 hours. Integrin coating and corresponding activity was subsequently measured for each batch but typically, 25 ng of coated protein was used per assay well.
A DNA fragment encoding the domains 9-10 (amino-acids 1325-1509) of human fibronectin (Swiss-Prot Accession No. P02751) was isolated from cDNA libraries using standard molecular biology and PCR cloning techniques. The cDNA fragment was sub-cloned into a pT73.3 expression vector containing a GST-epitope tag (developed at AstraZeneca; Bagnall et al., Protein Expression and Purification, 2003, 27: 1-11). Following expression in E. coli, the expressed protein, termed Fn9-10, was purified using the GST-tag using standard purification techniques. The recombinant Fn9-10 was subsequently biotinylated using a EZ-link Sulfo-NHS-LC-Biotinylation kit (Perbio Science UK Ltd., Cramlington, Northumberland, NE23 1WA, UK, Catalogue No. 21335) and made to give a final concentration of approximately 1 mg/ml. Tag-NHS-Ester was labeled with streptavidin by incubation at room temperature following manufacturers instructions and buffer-exchanged into PBS to give a concentration of 0.5 mg/ ml. Immediately prior to the assay, biotinylated-Fn9-10 and Streptavidin-labeled Tag were diluted in Assay Buffer to give a final concentrations of 0.6 ug/ml and 1.5 ug/ml respectively. The Fn9-10 and Tag solutions were then mixed together in equal volumes and incubated on ice for at least 30 minutes prior to the assay.
Test compounds were prepared as 10 mM stock solutions in DMSO (Sigma-Aldrich Company Ltd, Gillingham, Dorset SP8 4XT Catalogue No. 154938) and serially diluted with 4% DMSO to give a range of test concentrations at ×4 required final concentration. Aliquots (20 μl) of each compound dilution were placed into each well of a 384-well round bottomed polypropylene plate (Matrix Technologies, Wilmslow, Cheshire, SK9 3LP, Catalogue No. 4340 384). Each plate also contained control wells: maximum signal was created using wells containing 20 μl of 4% DMSO, and minimum signal corresponding to no binding was created using wells containing 20 μl of 80 mM EDTA (Sigma Catalogue No. E7889).
For the assay, 25 ng(20 ul) of a5b1-bead suspension and 40 μl of the Fn9-10/Tag pre-incubated solution were added to each well containing 20 μl of compound or control solution. Assay plates were then incubated at room temperature for a minimum of 6 hours before being analysed on an Origen plate reader. The minimum value was subtracted from all values, and the signal was plotted against compound concentration to generate IC50 data.
The data in the above table was generated in an assay substantially as described above in relation to Binding Assay (a). Some of the compounds shown in the table were tested more than once in the assay. For those compounds the IC50 value shown is the geometric mean of the measured IC50 values. […]

Sequence of α5β1 integrin (P08648 42-894 limits assumed): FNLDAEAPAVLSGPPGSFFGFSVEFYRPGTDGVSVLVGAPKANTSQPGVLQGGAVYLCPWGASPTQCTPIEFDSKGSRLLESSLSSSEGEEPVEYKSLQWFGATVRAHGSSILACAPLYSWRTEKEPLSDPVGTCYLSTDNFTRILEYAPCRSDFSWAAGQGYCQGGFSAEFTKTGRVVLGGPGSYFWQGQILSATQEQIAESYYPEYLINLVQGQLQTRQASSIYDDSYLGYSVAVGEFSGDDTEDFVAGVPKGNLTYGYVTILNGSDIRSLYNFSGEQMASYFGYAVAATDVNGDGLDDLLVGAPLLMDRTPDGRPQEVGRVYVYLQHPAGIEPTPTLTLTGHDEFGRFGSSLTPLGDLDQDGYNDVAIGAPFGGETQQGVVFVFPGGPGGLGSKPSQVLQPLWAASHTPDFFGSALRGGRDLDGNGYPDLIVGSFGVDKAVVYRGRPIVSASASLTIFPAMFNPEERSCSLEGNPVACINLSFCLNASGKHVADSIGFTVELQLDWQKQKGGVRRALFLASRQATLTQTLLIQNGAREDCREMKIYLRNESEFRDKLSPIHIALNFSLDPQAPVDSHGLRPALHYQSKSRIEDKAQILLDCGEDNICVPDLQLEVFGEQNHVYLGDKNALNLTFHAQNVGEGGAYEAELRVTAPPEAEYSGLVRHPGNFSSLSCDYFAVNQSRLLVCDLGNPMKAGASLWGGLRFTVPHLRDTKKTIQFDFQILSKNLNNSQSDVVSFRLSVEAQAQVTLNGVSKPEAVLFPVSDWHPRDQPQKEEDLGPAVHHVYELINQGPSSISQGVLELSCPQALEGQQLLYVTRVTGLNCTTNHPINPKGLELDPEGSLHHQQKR
Sequence of α5β1 integrin (P08648 895-1049 partner limits assumed): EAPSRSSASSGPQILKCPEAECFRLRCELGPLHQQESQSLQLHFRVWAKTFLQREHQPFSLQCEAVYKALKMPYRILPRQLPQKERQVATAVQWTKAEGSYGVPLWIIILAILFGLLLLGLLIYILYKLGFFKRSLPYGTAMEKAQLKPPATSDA
Sequence of α5β1 integrin (P05556 21-798): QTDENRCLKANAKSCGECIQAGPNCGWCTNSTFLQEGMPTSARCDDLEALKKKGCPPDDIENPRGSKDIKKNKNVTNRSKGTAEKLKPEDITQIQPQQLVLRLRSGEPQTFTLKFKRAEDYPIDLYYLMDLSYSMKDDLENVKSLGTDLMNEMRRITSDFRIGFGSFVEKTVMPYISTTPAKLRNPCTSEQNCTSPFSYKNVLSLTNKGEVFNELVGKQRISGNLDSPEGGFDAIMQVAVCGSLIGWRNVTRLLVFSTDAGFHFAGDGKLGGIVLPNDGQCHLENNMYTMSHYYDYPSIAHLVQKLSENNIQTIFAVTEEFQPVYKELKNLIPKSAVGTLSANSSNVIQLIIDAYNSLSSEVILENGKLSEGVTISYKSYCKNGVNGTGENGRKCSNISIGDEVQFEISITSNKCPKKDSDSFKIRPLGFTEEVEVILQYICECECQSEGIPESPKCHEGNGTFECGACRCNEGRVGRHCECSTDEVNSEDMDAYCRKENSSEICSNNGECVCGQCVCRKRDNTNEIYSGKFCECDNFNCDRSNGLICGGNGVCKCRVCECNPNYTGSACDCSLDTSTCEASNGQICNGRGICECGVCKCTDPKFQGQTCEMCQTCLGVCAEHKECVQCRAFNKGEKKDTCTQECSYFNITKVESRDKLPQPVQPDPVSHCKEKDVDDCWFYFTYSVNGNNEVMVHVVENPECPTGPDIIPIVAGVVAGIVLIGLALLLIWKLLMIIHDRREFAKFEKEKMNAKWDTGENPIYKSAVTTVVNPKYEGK

| SMILES | IC50 |
| --- | --- |
| CC(C)(C(=O)N[C@@H](Cc1ccc(OCCc2ccc3c(n2)NCCO3)cc1)C(=O)O)C(=O)N1CCCC1 [Example 5.2, O-[2-(3,4-dihydro-2H-pyrido[3,2-b][1,4]oxazin-6-yl)ethyl]-N-(2,2-dimethyl-3-oxo-3-pyrrolidin-1-ylpropanoyl)-L-tyrosine] | 4 nM |
| CNc1cccc(CCOc2ccc(C[C@H](NC(=O)[C@H](CC(C)C)NC(=O)c3ccccc3)C(=O)O)cc2)n1 [Example 1.4, N-benzoylleucyl-O-{2-[6-(methylamino)pyridin-2-yl]ethyl}-L-tyrosine] | 66 nM |
| CNc1cccc(CCOc2ccc(C[C@H](NC(=O)C3(OC)CCOCC3)C(=O)O)cc2)n1 [Example 1.7, N-[(4-methoxytetrahydro-2H-pyran-4-yl)carbonyl]-O-{2-[6-(methylamino)pyridin-2-yl]ethyl}-L-tyrosine] | 4 nM |
| CNc1cccc(CCOc2ccc(C[C@H](NC(=O)C3CCCCC3)C(=O)O)cc2)n1 [Example 1.15, N-(cyclohexylcarbonyl)-O-{2-[6-(methylamino)pyridin-2-yl]ethyl}-L-tyrosine] | 32 nM |
